Experimental data taken from US12662489B2 (Sitryx Therapeutics Limited, priority 2023, dated 2026).
pIC50: −log10 of the molar value.

How the values were obtained:
[1] = molecular target: T1, MTHFD1 recombinant human enzyme (Homo sapiens, UniProt P11586); assay: MTHFD1 inhibition assay (NAD(P)H-Glo luminescence); details: MTHFD1 IC50, recombinant human enzyme 200 nM, NADP, band
T1 sequence (P11586 2-291 limits assumed): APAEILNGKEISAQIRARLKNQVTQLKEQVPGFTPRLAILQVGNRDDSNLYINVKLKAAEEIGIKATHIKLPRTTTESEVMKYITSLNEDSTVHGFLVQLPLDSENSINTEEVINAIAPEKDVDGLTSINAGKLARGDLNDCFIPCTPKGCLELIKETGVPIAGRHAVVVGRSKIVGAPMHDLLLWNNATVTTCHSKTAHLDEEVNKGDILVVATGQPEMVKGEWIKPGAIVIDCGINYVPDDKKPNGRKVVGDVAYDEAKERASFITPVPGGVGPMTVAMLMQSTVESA

[2] = molecular target: T2, MTHFD2 recombinant human enzyme (Homo sapiens, UniProt P13995); assay: MTHFD2 inhibition assay (NAD(P)H-Glo luminescence); details: for MTHFD1/MTHFD2 IC50 ratio: selectivity of MTHFD2 inhibition over MTHFD1, band
T2 sequence (P13995 36-350): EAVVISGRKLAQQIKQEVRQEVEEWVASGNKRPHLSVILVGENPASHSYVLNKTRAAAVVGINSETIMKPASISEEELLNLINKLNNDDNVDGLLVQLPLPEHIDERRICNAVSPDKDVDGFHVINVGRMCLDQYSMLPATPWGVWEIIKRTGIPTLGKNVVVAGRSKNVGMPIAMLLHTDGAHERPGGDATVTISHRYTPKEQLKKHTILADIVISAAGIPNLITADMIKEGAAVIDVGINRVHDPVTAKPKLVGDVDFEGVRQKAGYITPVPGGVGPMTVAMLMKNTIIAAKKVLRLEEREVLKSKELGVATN

| Structure (SMILES) | pIC50 [1] | pIC50 [2] | MTHFD1/MTHFD2 IC50 ratio [2] |
| --- | --- | --- | --- |
| CCOc1cc(C(=O)N2CCc3c(c(=O)oc4c(C)c(N5CCN(C)[C@@H](COC)C5)cc(C)c34)C2)c(F)cc1C(=O)NS(=O)(=O)N1CC[C@@H](F)C1 [Example 261, 2-ethoxy-5-fluoro-N-(((R)-3-fluoropyrrolidin-1-yl)sulfonyl)-4-(8-((R)-3-(methoxymethyl)-4-methylpiperazin-1-yl)-7,10-dimethyl-5-oxo-1,3,4,5-tetrahydro-2H-chromeno[3,4-c]pyridine-3-carbonyl)benzamide] | 6.00 to 7.00 | 8.00 to 9.00 |  |
| COC[C@H]1CN(c2cc(C)c3c4c(c(=O)oc3c2C)CN(C(=O)c2ccc(C(=O)NS(=O)(=O)N(C)C)c(N3CCC[C@H]3C)c2)CC4)CCN1C [Example 102, N-(N,N-dimethylsulfamoyl)-4-(8-((R)-3-(methoxymethyl)-4-methylpiperazin-1-yl)-7,10-dimethyl-5-oxo-1,3,4,5-tetrahydro-2H-chromeno[3,4-c]pyridine-3-carbonyl)-2-((R)-2-methylpyrrolidin-1-yl)benzamide] | 7.00 to 8.00 | 7.00 to 8.00 | F (<3) |
| CCOc1cc(C(=O)N2CCc3c(c(=O)oc4c(C)c(N5CCN(C)[C@@H](COC)C5)cc(C)c34)C2)c(F)cc1C(=O)NS(=O)(=O)N1CC2(CCC2)C1 [Example 220, (R)-N-((2-azaspiro[3.3]heptan-2-yl)sulfonyl)-2-ethoxy-5-fluoro-4-(8-(3-(methoxymethyl)-4-methylpiperazin-1-yl)-7,10-dimethyl-5-oxo-1,3,4,5-tetrahydro-2H-chromeno[3,4-c]pyridine-3-carbonyl)benzamide] | 6.00 to 7.00 | 7.00 to 8.00 | H (>9.0 to 30) |
| COC[C@H]1CN(c2cc(C)c3c4c(c(=O)oc3c2)CN(C(=O)c2ccc(C(=O)NS(=O)(=O)N3CCCC3)c(OC3CCC3)c2F)CC4)CCN1C [Example 186, (R)-2-cyclobutoxy-3-fluoro-4-(8-(3-(methoxymethyl)-4-methylpiperazin-1-yl)-10-methyl-5-oxo-1,3,4,5-tetrahydro-2H-chromeno[3,4-c]pyridine-3-carbonyl)-N-(pyrrolidin-1-ylsulfonyl)benzamide] | 6.00 to 7.00 | 6.00 to 7.00 | F (<3) |
| COC[C@H]1CN(c2ccc3c4c(c(=O)oc3c2Cl)CN(C(=O)c2ccc(C(=O)NS(=O)(=O)C3(C)CC3)c(OC3CCC3)c2)CC4)CCN1C [Example 10, (R)-4-(7-chloro-8-(3-(methoxymethyl)-4-methylpiperazin-1-yl)-5-oxo-1,3,4,5-tetrahydro-2H-chromeno[3,4-c]pyridine-3-carbonyl)-2-cyclobutoxy-N-((1-methylcyclopropyl)sulfonyl)benzamide] | 7.00 to 8.00 | 7.00 to 8.00 | F (<3) |
| COC[C@H]1CN(c2cc(C)c3c4c(c(=O)oc3c2C)CN(C(=O)c2ccc(C(=O)NS(=O)(=O)C3(C)CC3)c(N3CC5CC5C3)c2)CC4)CCN1C (stereo partly drawn) [Example 46, 2-(3-azabicyclo[3.1.0]hexan-3-yl)-4-(8-((R)-3-(methoxymethyl)-4-methylpiperazin-1-yl)-7,10-dimethyl-5-oxo-1,3,4,5-tetrahydro-2H-chromeno[3,4-c]pyridine-3-carbonyl)-N-((1-methylcyclopropyl)sulfonyl)benzamide] | 7.00 to 8.00 | 8.00 to 9.00 | H (>9.0 to 30) |
| COC[C@H]1CN(c2cc(C)c3c4c(c(=O)oc3c2C)CN(C(=O)c2ccc(C(=O)NS(=O)(=O)N(C)C)c(OC3CCC(F)(F)CC3)c2F)CC4)CCN1C [Example 85, (R)-2-((4,4-difluorocyclohexyl)oxy)-N-(N,N-dimethylsulfamoyl)-3-fluoro-4-(8-(3-(methoxymethyl)-4-methylpiperazin-1-yl)-7,10-dimethyl-5-oxo-1,3,4,5-tetrahydro-2H-chromeno[3,4-c]pyridine-3-carbonyl)benzamide] | 8.00 to 9.00 | 8.00 to 9.00 | F (<3) |
| COC[C@H]1CN(c2ccc3c4c(c(=O)oc3c2C)CN(C(=O)c2ccc(C(=O)NS(=O)(=O)N3CCCC3)c(OC3CCC3)c2F)CC4)CCN1C(C)C [Example 170, (R)-2-cyclobutoxy-3-fluoro-4-(8-(4-isopropyl-3-(methoxymethyl)piperazin-1-yl)-7-methyl-5-oxo-1,3,4,5-tetrahydro-2H-chromeno[3,4-c]pyridine-3-carbonyl)-N-(pyrrolidin-1-ylsulfonyl)benzamide] | 6.00 to 7.00 | 7.00 to 8.00 | G (^ 3 to 9.0) |
| COC[C@H]1CN(c2cc(C)c3c4c(c(=O)oc3c2C)CN(C(=O)c2ccc(C(=O)NS(=O)(=O)N(C)C)c(OC3C[C@@H]5C[C@@H]5C3)c2)CC4)CCN1C (mixture of isomers) [Example 108, 2-(bicyclo[3.1.0]hexan-3-yloxy)-N-(N,N-dimethylsulfamoyl)-4-(8-((R)-3-(methoxymethyl)-4-methylpiperazin-1-yl)-7,10-dimethyl-5-oxo-1,3,4,5-tetrahydro-2H-chromeno[3,4-c]pyridine-3-carbonyl)benzamide] | 7.00 to 8.00 | 7.00 to 8.00 | F (<3) |
| COC[C@H]1CN(c2cc(C)c3c4c(c(=O)oc3c2C)CN(C(=O)c2cc(OC3CCC3)c(C(=O)NS(=O)(=O)N3CCCC3)c(C(F)(F)F)c2)CC4)CCN1C [Example 132, (R)-2-cyclobutoxy-4-(8-(3-(methoxymethyl)-4-methylpiperazin-1-yl)-7,10-dimethyl-5-oxo-1,3,4,5-tetrahydro-2H-chromeno[3,4-c]pyridine-3-carbonyl)-N-(pyrrolidin-1-ylsulfonyl)-6-(trifluoromethyl)benzamide] | 6.00 to 7.00 | 7.00 to 8.00 | H (>9.0 to 30) |
| COC[C@H]1CN(c2ccc3c4c(c(=O)oc3c2C)CN(C(=O)c2cc(Cl)c(C(=O)NS(=O)(=O)N(C)C)c(N3C5CCC3CC5)c2)CC4)CCN1C [Example 80, (R)-2-(7-azabicyclo[2.2.1]heptan-7-yl)-6-chloro-N-(N,N-dimethylsulfamoyl)-4-(8-(3-(methoxymethyl)-4-methylpiperazin-1-yl)-7-methyl-5-oxo-1,3,4,5-tetrahydro-2H-chromeno[3,4-c]pyridine-3-carbonyl)benzamide] | 7.00 to 8.00 | 7.00 to 8.00 | G (^ 3 to 9.0) |
| COC[C@H]1CN(c2cc(C)c3c4c(c(=O)oc3c2C)CN(C(=O)c2ccc(C(=O)NS(=O)(=O)N3CCCC3)c(OC3C5CC6CC(C5)CC3C6)c2F)CC4)CCN1C (stereo partly drawn) [Example 94, 2-((adamantan-2-yl)oxy)-3-fluoro-4-(8-((R)-3-(methoxymethyl)-4-methylpiperazin-1-yl)-7,10-dimethyl-5-oxo-1,3,4,5-tetrahydro-2H-chromeno[3,4-c]pyridine-3-carbonyl)-N-(pyrrolidin-1-ylsulfonyl)benzamide] | 7.00 to 8.00 | 7.00 to 8.00 | F (<3) |
| COC[C@H]1CN(c2cc(C)c3c4c(c(=O)oc3c2C)CN(C(=O)c2ccc(C(=O)NS(=O)(=O)N(C)C)c(N(C)C3CCC3)c2F)CC4)CCN1C [Example 39, (R)-2-(cyclobutyl(methyl)amino)-N-(N,N-dimethylsulfamoyl)-3-fluoro-4-(8-(3-(methoxymethyl)-4-methylpiperazin-1-yl)-7,10-dimethyl-5-oxo-1,3,4,5-tetrahydro-2H-chromeno[3,4-c]pyridine-3-carbonyl)benzamide] | 7.00 to 8.00 | 8.00 to 9.00 | G (^ 3 to 9.0) |
| COC[C@H]1CN(c2ccc3c4c(c(=O)oc3c2Cl)CN(C(=O)c2ccc(C(=O)NS(=O)(=O)N(C)C)c(O[C@@H]3C[C@@H]5C[C@@H]5C3)c2F)CC4)CCN1C [Example 61, 2-(((1R,3r,5S)-bicyclo[3.1.0]hexan-3-yl)oxy)-4-(7-chloro-8-((R)-3-(methoxymethyl)-4-methylpiperazin-1-yl)-5-oxo-1,3,4,5-tetrahydro-2H-chromeno[3,4-c]pyridine-3-carbonyl)-N-(N,N-dimethylsulfamoyl)-3-fluorobenzamide] | 8.00 to 9.00 | 8.00 to 9.00 | F (<3) |
| COC[C@H]1CN(c2ccc3c4c(c(=O)oc3c2Cl)CN(C(=O)c2ccc(C(=O)NS(=O)(=O)N(C)C(C)C)c(O[C@@H]3C[C@@H]5C[C@@H]5C3)c2F)CC4)CCN1C [Example 65, 2-(((1R,3r,5S)-bicyclo[3.1.0]hexan-3-yl)oxy)-4-(7-chloro-8-((R)-3-(methoxymethyl)-4-methylpiperazin-1-yl)-5-oxo-1,3,4,5-tetrahydro-2H-chromeno[3,4-c]pyridine-3-carbonyl)-3-fluoro-N-(N-isopropyl-N-methylsulfamoyl)benzamide] | 8.00 to 9.00 | 7.00 to 8.00 | F (<3) |
| COC[C@H]1CN(c2ccc3c4c(c(=O)oc3c2Cl)CN(C(=O)c2ccc(C(=O)NS(=O)(=O)N(C)C(C)C)c(OC3CCC3)c2F)CC4)CCN1C [Example 30, (R)-4-(7-chloro-8-(3-(methoxymethyl)-4-methylpiperazin-1-yl)-5-oxo-1,3,4,5-tetrahydro-2H-chromeno[3,4-c]pyridine-3-carbonyl)-2-cyclobutoxy-3-fluoro-N-(N-isopropyl-N-methylsulfamoyl)benzamide] | 7.00 to 8.00 | 7.00 to 8.00 | F (<3) |
